Results taken from patent publication US6083976A, “Method of synthesis of derivatives of aloesin” (Univera Pharmaceuticals, Inc., priority 1999, dated 2000).
Where two headings read alike, the source gives them in different places.

Tests used:
tyrosinase [1] = conditions: cited from earlier work
tyrosinase [2] = test: Tyrosinase activity assay using L-DOPA as a substrate; assay type: biochemical; conditions: for IC50: L-DOPA 0.4 mM, 48 U tyrosinase, absorbance at 475 nm, read-out: average concentration for 50% tyrosinase inhibition
Description: Example 2 illustrates the general method for determination of tyrosinase inhibition by the alkylated aloesins, using octylaloesin for purposes of illustration.
A tyrosinase activity assay was performed using L-DOPA as a substrate. Each 750 μL assay mixture contained KH2 PO4 /K2 HPO4 at a concentration of 50 mM, L-DOPA at a concentration of 0.4 mM, 48 U of tyrosinase activity (tyrosinase obtained from SIGMA at 4,400 U/mg), and varying concentrations of the inhibitor being tested. The progress of the reaction was monitored by measuring the absorbance of the reaction mixture at 475 nm.

[3] = relative to hydroquinone; cited from earlier work

IC50 (tyrosinase [2]) [µM]	SMILES	mode of tyrosinase inhibition (Lineweaver Burk diagram) (tyrosinase [1])	quantity required to achieve a similar effect, compared to the quantity of hydroquinone used [3]	further results
–	COc1cc(/C=C/C(=O)O[C@@H]2[C@@H](O)[C@H](O)[C@@H](CO)O[C@H]2c2c(O)cc(C)c3c(=O)cc(CC(C)=O)oc23)ccc1O [2"-O-feruloylaloesin]	non-competitive inhibitors of tyrosinase	–	–
250	CC(=O)Cc1cc(=O)c2c(C)cc(O)c([C@@H]3O[C@H](CO)[C@@H](O)[C@H](O)[C@H]3O)c2o1 [Aloesin]	non-competitive inhibitors of tyrosinase	–	IC50 (tyrosinase [1]; substrate L-DOPA, read-out: concentration for 50% inhibition of tyrosinase activity): 200 µM
107	CCCCCCCCOc1cc(C)c2c(=O)cc(CC(C)=O)oc2c1[C@@H]1O[C@H](CO)[C@@H](O)[C@H](O)[C@H]1O [Octylaloesin]	–	–	fold more potent as a tyrosinase inhibitor than aloesin (tyrosinase [2]; ratio of 50% inhibition concentrations): approximately 2.3 fold
–	OC[C@H]1O[C@@H](Oc2ccc(O)cc2)[C@H](O)[C@@H](O)[C@@H]1O [arbutin]	–	over 100 times	–
–	O=C1O[C@H]([C@@H](O)CO)C(O)=C1O [ascorbic acid]	–	17 times	–
